Measurements taken from paper PMC7313537 (PLoS ONE, 2020).

Legend:
AURKA = AURKA (Homo sapiens, UniProt O14965); experiment: Enzyme selectivity panel; format: biochemical; conditions: 1 mM ATP
Procedure: (§3) The kinase assays were carried out at room temperature in HEPES 50 mM, pH 7.0, NaN3 0.02%, BSA 0.01%, Orthovanadate 0.1 mM, DTT 1 mM, MgCl2 10 mM in a final volume of 10 µL. Test compounds were transferred to the plate wells by ECHO liquid handler (Labcyte, San Jose, CA) with 0.5% dimethyl sulfoxide (DMSO) in the final assay. Peptide/kinase mixtures were diluted in the appropriate enzymatic buffer and 5µL of the mixture was added to a 384-well small volume black plate. Reactions were initiated by the addition of 5 µL ATP in reaction buffer, the final reaction mixture consisted of 500 nM peptide substrate, 1 mM ATP, and appropriate amount of specific kinase. […] The plates were then sealed and centrifuged at 1800 rpm for 2 minutes. […] Half maximal inhibitory concentration (IC50) determination was performed by fitting the curve of percent control activity versus the log of the compound concentration using the GraphPad Prism 6.0 software.

CHEK1 = CHEK1 (Homo sapiens, UniProt O14757); experiment: Enzyme selectivity panel; format: biochemical; conditions: 1 mM ATP
Procedure: as §3

CLK3 = CLK3 (Homo sapiens, UniProt P49761); experiment: Enzyme selectivity panel; format: biochemical; conditions: 1 mM ATP
Procedure: as §3

EPHB4 = target: T1, EPHB4 (Homo sapiens, UniProt P54760); experiment: Enzyme selectivity panel; format: biochemical; conditions: 1 mM ATP
T1 construct: purchased In-house HTRF panel (56 kinases) and PerkinElmer (161-kinase panel)
Procedure: as §3

FLT3 = FLT3 (Homo sapiens, UniProt P36888); experiment: Enzyme selectivity panel; format: biochemical; conditions: 1 mM ATP
Procedure: as §3

GSK3B = target: T2, GSK3B (Homo sapiens, UniProt P49841); experiment: Enzyme selectivity panel; format: biochemical; conditions: 1 mM ATP
T2 construct: purchased In-house HTRF panel (56 kinases) and PerkinElmer (161-kinase panel)
Procedure: as §3

IKKB = IKKB (Homo sapiens, UniProt O14920); experiment: Enzyme selectivity panel; format: biochemical; conditions: 1 mM ATP
Procedure: as §3

NLK = NLK (Homo sapiens, UniProt Q9UBE8); experiment: Enzyme selectivity panel; format: biochemical; conditions: 1 mM ATP
Procedure: as §3

RET = RET (Homo sapiens, UniProt P07949); experiment: Enzyme selectivity panel; format: biochemical; conditions: 1 mM ATP
Procedure: as §3

SYK = SYK (Homo sapiens, UniProt P43405); experiment: Enzyme selectivity panel; format: biochemical; conditions: 1 mM ATP
Procedure: as §3

TRKA = TRKA (Homo sapiens, UniProt P04629); experiment: Enzyme selectivity panel; format: biochemical; conditions: 1 mM ATP
Procedure: as §3

HER4 = target: T3, HER4 (Homo sapiens, UniProt Q15303); experiment: Broader kinase panel (PerkinElmer); format: biochemical; conditions: 100 nM; read-out: Average Percent Inhibition
T3 construct: purchased In-house HTRF panel (56 kinases) and PerkinElmer (161-kinase panel)
Source text: (§1) […]. […] […].

PKCb2 = target: T4, PKCb2 (Homo sapiens, UniProt P05771); experiment: Broader kinase panel (PerkinElmer); format: biochemical; conditions: 100 nM; read-out: Average Percent Inhibition
T4 construct: purchased In-house HTRF panel (56 kinases) and PerkinElmer (161-kinase panel)
Source text: as §1

PYK2 = target: T5, PYK2 (Homo sapiens, UniProt Q14289); experiment: Broader kinase panel (PerkinElmer); format: biochemical; conditions: 100 nM; read-out: Average Percent Inhibition
T5 construct: purchased In-house HTRF panel (56 kinases) and PerkinElmer (161-kinase panel)
Source text: as §1

p38-beta 2 = target: T6, p38-beta 2 (Homo sapiens, UniProt Q15759); experiment: Broader kinase panel (PerkinElmer); format: biochemical; conditions: 100 nM; read-out: Average Percent Inhibition
T6 construct: purchased In-house HTRF panel (56 kinases) and PerkinElmer (161-kinase panel)
Source text: as §1

p38a = target: T7, p38a (Homo sapiens, UniProt Q16539); experiment: Broader kinase panel (PerkinElmer); format: biochemical; conditions: 100 nM; read-out: Average Percent Inhibition
T7 construct: purchased In-house HTRF panel (56 kinases) and PerkinElmer (161-kinase panel)
Source text: as §1

[1] = system: FGFR3 phosphorylation in RT-4 cells; experiment: Proximity ligation assay; format: cell-based; conditions: 100 nM, 1 hour
Source text: S4 Figure. FGFR3 Phosphorylation Detected by Proximity Ligation Assay. […] Primary antibodies were rabbit anti-FGFR3 (Abcam, Cambridge, UK, #137084) at a 1:250 dilution and mouse 4G10 platinum anti-phosphotyrosine monoclonal cocktail IgG2b (Millipore, Burlington, MA, #05-1050) at a 1:250 dilution. Secondary probes were Duolink In Situ PLA® Probe Anti-Rabbit PLUS, affinity purified donkey anti-rabbit IgG (H+L) and Duolink In Situ PLA® Probe Anti-Mouse MINUS, Affinity purified donkey anti-mouse IgG (H+L). Detection was via Duolink In Situ Detection Reagents Red.

[2] = system: KATO III (gastric cancer); experiment: Cell viability assay (CellTiter-Glo); format: cell-based; conditions: Homo sapiens, FGFR2 amplification, 72 hours, read-out: Mean GI50 ± S.D.
KG1 = experiment: Cell viability assay (CellTiter-Glo); format: cell-based; conditions: Homo sapiens; KG1, parental line to KG1a
A549 = experiment: Cell viability assay (CellTiter-Glo); format: cell-based; conditions: Homo sapiens, Lung cancer, lacking FGFR alterations
MM1.S = experiment: Cell viability assay (CellTiter-Glo); format: cell-based; conditions: Homo sapiens, Myeloma, lacking FGFR alterations
TF1-BCR-ABL = experiment: Cell viability assay (CellTiter-Glo); format: cell-based; conditions: AML/recombinant; lacking FGFR alterations
Caco-2 permeability = format: in vitro ADME; conditions: human, Caco-2; A–B at 50 μM
Procedure: (§2) The Caco-2 monolayers were incubated at 37°C, with ambient humidity, and CO2 for the duration of the transport assay. […] The apical volume was 0.2 mL and the basolateral volume was 0.6 mL. The incubation period was 120 minutes. At the end of the incubation period, 0.1 mL of sample was removed from the receiver side and an equal volume of acetonitrile was added for protein precipitation. After centrifugation, the supernatants were collected for analysis. Nadolol and metoprolol were included as low and high permeability comparators, respectively. Trans-epithelial electrical resistance was measured to ensure the integrity of the cell monolayers. Caco-2 cell monolayers with trans-epithelial electrical resistance values ≥300 Ω•cm2 were used for transport experiments.

Caco-2 cell monolayers = experiment: Caco-2 permeability; format: in vitro ADME; conditions: A–B at 50 μM
Procedure: as §2

[3] = Intrinsic clearance in liver microsomes; format: in vitro ADME
Procedure: Aliquots were taken at 0, 10, 20, and 30 minutes and denatured with methanol. After centrifugation to remove the denatured proteins, the resulting supernatants were analyzed by LC/MS

[4] = Plasma protein binding (equilibrium dialysis); format: in vitro ADME, cynomolgus monkey; conditions: pH 7.4, monkey plasma, read-out: PPB (% free)
Procedure: The final DMSO content in all cases was <0.1%. Each condition was incubated in duplicate. For protein binding determination, the Multi-Equilibrium Dialyzer System™ and diachema membranes from Harvard Apparatus (Holliston, MA) were utilized. Equilibrium dialysis was carried out in Teflon cells separated by a dialysis membrane with a molecular weight cutoff of 10,000 Daltons. […] The cells were rotated at a speed of 12 rpm in a 37°C water bath for 2 hours. Following the incubation period, buffer and serum/plasma samples were drained separately into empty preweighed glass test tubes. The tubes were reweighed, and the exact volume of sample recovered from each side of the dialysis cell was calculated using the mass. A 75-μL aliquot of each sample (buffer or serum/plasma) was added to a 96-well plate containing a protein precipitation solution of 100% methanol and 0.2 μM dextrorphan as the internal standard; 75 μL of blank buffer or plasma/serum was added to the plate to ensure identical composition across all samples. Prior to analysis, samples prepared in the 96-well plate were vigorously vortexed for approximately 5 minutes and centrifuged for 10 minutes at ~1700 × g to remove denatured proteins and particulate matter. The supernatant was transferred and analyzed using LC-MS/MS.

[5] = Tolerability in xenograft studies; format: in vivo
xenografted tumor models = experiment: Combination with cisplatin in xenografted tumor models; format: in vivo; conditions: combination of INCB054828 with cisplatin

AURKA, sequence (O14965 whole entry, species assumed): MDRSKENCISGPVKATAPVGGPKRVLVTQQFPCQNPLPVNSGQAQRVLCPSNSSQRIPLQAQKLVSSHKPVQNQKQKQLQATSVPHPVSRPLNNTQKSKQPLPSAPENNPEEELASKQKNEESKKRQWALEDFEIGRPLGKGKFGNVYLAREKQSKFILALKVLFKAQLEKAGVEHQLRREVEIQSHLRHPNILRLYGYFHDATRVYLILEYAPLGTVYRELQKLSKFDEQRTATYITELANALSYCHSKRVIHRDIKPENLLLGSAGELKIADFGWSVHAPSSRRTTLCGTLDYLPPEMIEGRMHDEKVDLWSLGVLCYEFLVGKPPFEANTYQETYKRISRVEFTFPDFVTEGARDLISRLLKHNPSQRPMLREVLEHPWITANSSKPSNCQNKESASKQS
RET, sequence (P07949 29-1114, species assumed): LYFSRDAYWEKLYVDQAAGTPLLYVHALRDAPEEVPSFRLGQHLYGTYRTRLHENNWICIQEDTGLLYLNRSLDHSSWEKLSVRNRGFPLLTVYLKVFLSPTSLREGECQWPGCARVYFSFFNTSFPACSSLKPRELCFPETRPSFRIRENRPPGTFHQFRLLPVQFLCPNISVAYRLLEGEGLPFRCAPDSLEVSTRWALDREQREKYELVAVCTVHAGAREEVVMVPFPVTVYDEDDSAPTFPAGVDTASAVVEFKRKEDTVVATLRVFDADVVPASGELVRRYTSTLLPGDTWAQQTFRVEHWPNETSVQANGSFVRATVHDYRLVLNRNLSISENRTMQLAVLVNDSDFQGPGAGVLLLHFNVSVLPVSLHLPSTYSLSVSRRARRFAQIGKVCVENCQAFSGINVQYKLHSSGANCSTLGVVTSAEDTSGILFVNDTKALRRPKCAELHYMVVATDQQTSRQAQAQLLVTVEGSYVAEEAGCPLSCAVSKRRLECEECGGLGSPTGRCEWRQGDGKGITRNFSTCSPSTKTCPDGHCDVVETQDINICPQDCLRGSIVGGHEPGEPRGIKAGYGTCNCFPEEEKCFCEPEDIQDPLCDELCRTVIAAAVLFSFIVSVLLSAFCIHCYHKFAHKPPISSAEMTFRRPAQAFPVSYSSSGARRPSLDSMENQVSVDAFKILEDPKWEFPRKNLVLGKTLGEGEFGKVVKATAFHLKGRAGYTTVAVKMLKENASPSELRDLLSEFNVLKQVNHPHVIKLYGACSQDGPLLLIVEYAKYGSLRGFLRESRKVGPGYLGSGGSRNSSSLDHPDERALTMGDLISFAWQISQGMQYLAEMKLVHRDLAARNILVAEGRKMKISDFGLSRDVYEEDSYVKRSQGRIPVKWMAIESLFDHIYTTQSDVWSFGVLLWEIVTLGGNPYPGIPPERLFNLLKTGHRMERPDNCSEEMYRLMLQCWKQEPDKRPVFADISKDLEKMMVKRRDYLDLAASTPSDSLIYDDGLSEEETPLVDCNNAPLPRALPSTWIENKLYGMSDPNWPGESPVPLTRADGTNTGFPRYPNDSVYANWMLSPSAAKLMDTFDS
TRKA, sequence (P04629 33-796, species assumed): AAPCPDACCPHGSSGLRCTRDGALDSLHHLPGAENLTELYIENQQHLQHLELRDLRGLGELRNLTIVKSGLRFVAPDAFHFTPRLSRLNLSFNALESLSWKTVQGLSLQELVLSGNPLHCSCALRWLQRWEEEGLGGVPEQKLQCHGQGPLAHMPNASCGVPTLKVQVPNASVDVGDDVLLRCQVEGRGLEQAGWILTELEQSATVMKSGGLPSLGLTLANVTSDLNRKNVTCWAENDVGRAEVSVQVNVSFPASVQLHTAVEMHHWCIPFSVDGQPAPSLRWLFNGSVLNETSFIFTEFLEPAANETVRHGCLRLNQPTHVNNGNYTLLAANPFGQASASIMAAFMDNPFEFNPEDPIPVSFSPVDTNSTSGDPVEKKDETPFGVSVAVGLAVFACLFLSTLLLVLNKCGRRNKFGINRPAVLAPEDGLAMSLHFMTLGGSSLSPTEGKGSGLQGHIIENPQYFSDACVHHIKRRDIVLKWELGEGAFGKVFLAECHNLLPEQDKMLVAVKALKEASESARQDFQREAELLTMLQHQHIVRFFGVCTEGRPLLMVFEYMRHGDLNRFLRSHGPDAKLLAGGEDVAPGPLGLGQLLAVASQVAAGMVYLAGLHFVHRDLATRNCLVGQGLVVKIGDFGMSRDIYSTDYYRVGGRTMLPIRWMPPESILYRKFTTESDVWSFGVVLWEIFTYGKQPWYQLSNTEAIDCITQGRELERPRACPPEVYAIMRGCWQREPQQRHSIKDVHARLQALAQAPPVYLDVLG
T2 sequence (P49841 whole entry, species assumed): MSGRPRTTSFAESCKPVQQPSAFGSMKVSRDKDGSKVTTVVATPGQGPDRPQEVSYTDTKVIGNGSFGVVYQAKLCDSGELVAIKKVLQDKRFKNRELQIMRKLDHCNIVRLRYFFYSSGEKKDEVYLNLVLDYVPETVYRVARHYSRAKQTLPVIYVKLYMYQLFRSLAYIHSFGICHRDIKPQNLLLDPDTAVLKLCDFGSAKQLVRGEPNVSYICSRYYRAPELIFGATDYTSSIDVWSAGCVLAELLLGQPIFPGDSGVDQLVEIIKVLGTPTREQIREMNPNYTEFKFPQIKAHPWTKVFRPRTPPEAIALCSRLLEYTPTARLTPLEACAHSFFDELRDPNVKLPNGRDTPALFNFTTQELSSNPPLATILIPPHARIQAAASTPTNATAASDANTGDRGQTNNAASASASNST
CHEK1, sequence (O14757 whole entry, species assumed): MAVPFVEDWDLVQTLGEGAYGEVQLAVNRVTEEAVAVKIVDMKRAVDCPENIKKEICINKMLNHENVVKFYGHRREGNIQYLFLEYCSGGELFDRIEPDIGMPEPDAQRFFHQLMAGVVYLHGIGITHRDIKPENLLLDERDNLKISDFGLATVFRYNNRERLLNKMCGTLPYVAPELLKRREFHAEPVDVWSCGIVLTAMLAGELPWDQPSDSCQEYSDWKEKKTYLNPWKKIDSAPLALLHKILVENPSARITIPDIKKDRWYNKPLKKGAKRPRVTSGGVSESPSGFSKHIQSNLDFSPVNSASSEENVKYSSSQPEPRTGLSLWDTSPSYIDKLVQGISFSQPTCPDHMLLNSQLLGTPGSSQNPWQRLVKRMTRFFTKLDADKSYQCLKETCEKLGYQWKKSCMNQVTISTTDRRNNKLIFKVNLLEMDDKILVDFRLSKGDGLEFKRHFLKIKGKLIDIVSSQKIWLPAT
FLT3, sequence (P36888 27-993, species assumed): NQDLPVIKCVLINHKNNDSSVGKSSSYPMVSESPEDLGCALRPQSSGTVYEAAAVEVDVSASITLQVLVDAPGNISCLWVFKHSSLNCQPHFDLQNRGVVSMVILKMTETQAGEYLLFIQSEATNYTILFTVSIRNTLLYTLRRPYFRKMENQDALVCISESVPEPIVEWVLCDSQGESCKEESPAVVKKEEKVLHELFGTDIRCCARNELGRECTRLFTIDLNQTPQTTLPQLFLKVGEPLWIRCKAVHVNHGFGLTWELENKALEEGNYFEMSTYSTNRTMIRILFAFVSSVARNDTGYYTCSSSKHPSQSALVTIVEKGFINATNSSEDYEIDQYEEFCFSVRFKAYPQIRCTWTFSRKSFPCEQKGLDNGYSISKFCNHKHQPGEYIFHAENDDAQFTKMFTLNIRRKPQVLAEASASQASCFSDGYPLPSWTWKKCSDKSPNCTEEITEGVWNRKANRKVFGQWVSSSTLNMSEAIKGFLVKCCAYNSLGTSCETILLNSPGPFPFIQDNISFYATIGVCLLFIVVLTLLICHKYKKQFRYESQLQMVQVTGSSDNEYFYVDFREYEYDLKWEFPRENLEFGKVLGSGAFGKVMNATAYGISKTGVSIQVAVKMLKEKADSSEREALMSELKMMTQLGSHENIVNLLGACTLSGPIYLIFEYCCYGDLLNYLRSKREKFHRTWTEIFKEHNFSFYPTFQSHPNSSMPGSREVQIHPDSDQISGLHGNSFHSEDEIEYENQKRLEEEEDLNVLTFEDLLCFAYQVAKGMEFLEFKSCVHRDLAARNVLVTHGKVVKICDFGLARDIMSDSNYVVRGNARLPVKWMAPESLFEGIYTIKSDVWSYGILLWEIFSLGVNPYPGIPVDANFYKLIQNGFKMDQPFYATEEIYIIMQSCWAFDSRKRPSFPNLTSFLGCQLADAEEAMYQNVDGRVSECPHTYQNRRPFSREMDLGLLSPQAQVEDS
T7 sequence (Q16539 whole entry): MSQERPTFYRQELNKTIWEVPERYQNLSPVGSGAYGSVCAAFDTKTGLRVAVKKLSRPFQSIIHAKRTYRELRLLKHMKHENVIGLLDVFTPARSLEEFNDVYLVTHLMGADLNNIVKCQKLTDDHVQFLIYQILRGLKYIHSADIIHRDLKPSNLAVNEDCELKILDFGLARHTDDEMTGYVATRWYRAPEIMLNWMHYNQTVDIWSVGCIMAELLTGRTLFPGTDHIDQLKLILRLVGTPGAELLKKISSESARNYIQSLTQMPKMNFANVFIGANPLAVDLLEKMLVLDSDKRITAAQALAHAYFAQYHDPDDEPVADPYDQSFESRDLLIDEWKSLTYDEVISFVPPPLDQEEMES
T6 sequence (Q15759 whole entry): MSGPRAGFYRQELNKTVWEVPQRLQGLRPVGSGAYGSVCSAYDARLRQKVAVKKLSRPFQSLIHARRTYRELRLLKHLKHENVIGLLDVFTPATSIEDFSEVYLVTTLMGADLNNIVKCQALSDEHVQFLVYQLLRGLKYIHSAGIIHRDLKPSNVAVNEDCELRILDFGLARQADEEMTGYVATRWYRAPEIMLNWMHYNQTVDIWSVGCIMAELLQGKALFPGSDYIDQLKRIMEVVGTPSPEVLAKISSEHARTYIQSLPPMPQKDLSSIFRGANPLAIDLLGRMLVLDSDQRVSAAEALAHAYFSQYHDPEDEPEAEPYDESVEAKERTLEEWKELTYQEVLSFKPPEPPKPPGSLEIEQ

## CCN1C(=O)N(c2c(F)c(OC)cc(OC)c2F)Cc2cnc3[nH]c(CN4CCOCC4)cc3c21 [INCB054828, pemigatinib]
AURKA
  IC50: > 10 µM
CHEK1
  IC50: > 10 µM
CLK3
  IC50: > 10 µM
EPHB4
  IC50: > 10 µM
FLT3
  IC50: > 10 µM
GSK3B
  IC50: > 10 µM
IKKB
  IC50: > 10 µM
NLK
  IC50: > 10 µM
RET
  IC50: > 10 µM
SYK
  IC50: > 10 µM
TRKA
  IC50: > 10 µM
HER4
  inhibition at 0.1 µM: -15%
PKCb2
  inhibition at 0.1 µM: 0%
PYK2
  inhibition at 0.1 µM: -1%
p38-beta 2
  inhibition at 0.1 µM: 2%
p38a
  inhibition at 0.1 µM: 1%
[1]
  FGFR3 phosphorylation: a decrease was detected
[2]
  GI50: 0.003 ± 0.001 µM
KG1
  GI50: 0.001 µM
A549
  GI50: > 5 µM
MM1.S
  GI50: > 5 µM
TF1-BCR-ABL
  GI50: > 5 µM
Caco-2 permeability
  Papp at 120 min, 50 μM: 11 ×10⁻⁶ cm/s
Caco-2 cell monolayers
  Caco-2 Papp: moderate to high permeability
[3]; human liver microsomes
  Intrinsic clearance: moderate metabolic stability
[3]; human, pH 7.4
  CLint scaled at 1 μM: 13.3 mL/min/kg
[4]
  fraction unbound at 2 h, 1 μM: 0.082
[5]; 0.3–1 mg/kg once daily, longer than 1 month
  overt toxicities: no overt toxicities were observed
[5]; doses up to and including 1 mg/kg, up to 42 days
  tolerability (body weight changes, clinical signs): well tolerated
Xenografted tumor models
  benefit of combination with cisplatin over either single agent: significant benefit over either single agent
